Target: T1, soluble guanylate cyclase (sGC) (Homo sapiens, UniProt Q02108+Q02153)
T1 construct: endogenously expressing soluble guanylate cyclase (sGC); endogenous in cells; host or cells: HEK293
T1 sequence (Q02153 1-619): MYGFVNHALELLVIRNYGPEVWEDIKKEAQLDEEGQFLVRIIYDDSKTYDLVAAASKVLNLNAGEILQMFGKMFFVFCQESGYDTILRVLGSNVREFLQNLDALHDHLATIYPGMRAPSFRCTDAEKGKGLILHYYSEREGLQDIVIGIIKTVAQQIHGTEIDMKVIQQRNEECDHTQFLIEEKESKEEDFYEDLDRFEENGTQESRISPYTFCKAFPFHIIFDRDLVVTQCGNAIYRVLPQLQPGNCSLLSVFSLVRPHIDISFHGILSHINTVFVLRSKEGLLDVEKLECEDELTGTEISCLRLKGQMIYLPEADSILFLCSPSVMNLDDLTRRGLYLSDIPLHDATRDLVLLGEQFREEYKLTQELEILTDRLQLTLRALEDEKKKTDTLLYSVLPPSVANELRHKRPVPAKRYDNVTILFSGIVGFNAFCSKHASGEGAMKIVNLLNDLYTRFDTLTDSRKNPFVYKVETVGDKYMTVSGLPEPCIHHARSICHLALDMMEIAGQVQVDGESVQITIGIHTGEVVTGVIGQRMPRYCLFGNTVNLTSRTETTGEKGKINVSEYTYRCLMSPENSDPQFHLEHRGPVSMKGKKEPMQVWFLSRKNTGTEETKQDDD
T1 sequence (Q02108 1-690): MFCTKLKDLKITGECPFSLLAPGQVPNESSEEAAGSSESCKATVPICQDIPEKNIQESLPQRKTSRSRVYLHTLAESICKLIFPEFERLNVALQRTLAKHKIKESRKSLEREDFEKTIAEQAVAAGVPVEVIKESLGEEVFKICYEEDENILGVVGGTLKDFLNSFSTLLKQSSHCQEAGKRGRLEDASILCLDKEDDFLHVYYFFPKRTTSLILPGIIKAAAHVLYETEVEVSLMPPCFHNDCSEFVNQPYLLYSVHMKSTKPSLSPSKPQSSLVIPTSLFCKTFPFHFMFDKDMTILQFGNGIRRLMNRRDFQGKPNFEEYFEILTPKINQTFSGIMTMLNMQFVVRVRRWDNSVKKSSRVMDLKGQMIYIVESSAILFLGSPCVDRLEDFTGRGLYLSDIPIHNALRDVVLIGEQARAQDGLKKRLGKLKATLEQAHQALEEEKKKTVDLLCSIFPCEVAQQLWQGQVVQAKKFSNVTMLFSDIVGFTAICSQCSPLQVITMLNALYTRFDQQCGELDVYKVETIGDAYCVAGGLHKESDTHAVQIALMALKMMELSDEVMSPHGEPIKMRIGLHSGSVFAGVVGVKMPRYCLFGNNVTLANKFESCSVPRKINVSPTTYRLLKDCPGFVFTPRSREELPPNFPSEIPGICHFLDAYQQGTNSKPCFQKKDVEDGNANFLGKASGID
Assay: sGC-HEK-cGMP assay
Format: cell-based
Conditions: HEK293 cells, 10 min incubation, intracellular cGMP by LC/MS; for Increase in cGMP Concentration Tested at 10 μM in HEK Assay: test compound 10 μM; for Increase in cGMP Concentration Tested at 30 μM in HEK Assay: test compound 30 μM
Procedure: Human embryonic kidney cells (HEK293), endogenously expressing soluble guanylate cyclase (sGC), were used to evaluate the activity of test compounds. Compounds stimulating the sGC receptor should cause an increase in the intracellular concentration of cGMP. […] Cells were then incubated for 15 minutes at 37° C. with 0.5 mM 3-isobutyl-1-methylxanthine (2004). Test article was then added to the assay mixture (2 μL) and incubated at 37° C. for 10 minutes. After the 10 minute incubation, the assay mixture was aspirated and 0.1M HCl (2004) was added to the cells. The plate was incubated at 4° C. for 30 minutes in the 0.1M HCl to stop the reaction and lyse the cells. The plates were then centrifuged at 1,200 g for 5 minutes at room temperature. Supernatants were collected and transferred to a new flat bottom 96 well plate for analysis. Vehicle controls were carried out using DMSO (1%). A known sGC stimulator, BAY 41-2272, was used as the positive control.
Samples were diluted with an equal volume of 1 M Ammonium Acetate (pH 7) to neutralize samples for better chromatography. A 2×cGMP standard curve was prepared in 0.1 M HCl and then diluted with an equal volume of 1 M Ammonium Acetate, with the following final concentrations in nM: 1024, 512, 256, 128, 64, 32, 16, 8, 4, 2, 1.
cGMP concentrations were determined from each sample using the LC/MS conditions (Table 2 below) and calculated standard curve. EC50 values were calculated from concentration-response curves generated with GraphPad Prism Software.

Structure (SMILES)	Increase in cGMP Concentration Tested at 10 μM in HEK Assay	Increase in cGMP Concentration Tested at 30 μM in HEK Assay
Fc1ccc(Cn2nc(-c3ncccn3)c3c2CCCC3)cc1 [Compound I-6]	A (A represents no increase or an increase ranging from more than 0 fold to less than 5 fold)	A (A represents no increase or an increase ranging from more than 0 fold to less than 5 fold)
c1cnc(-c2nn(Cc3cccc4ccccc34)c3c2CCCC3)nc1 [Compound I-11]	A (A represents no increase or an increase ranging from more than 0 fold to less than 5 fold)	A (A represents no increase or an increase ranging from more than 0 fold to less than 5 fold)
COC(=O)Nc1c(N)nc(-c2nn(Cc3ccccc3F)c3c2CCC3)nc1N [Compound I-36]	C (C represents an increase ranging from 10 fold to less than 20 fold)	B (B represents an increase ranging from 5 fold to less than 10 fold)
O=C1CCCc2c1c(-c1ncccn1)nn2Cc1ccccc1F [Compound I-21]	A (A represents no increase or an increase ranging from more than 0 fold to less than 5 fold)	A (A represents no increase or an increase ranging from more than 0 fold to less than 5 fold)
O=C(c1ccccn1)N1CCc2c(c(-c3ncccn3)nn2Cc2ccccc2F)C1 [Compound I-56]	A (A represents no increase or an increase ranging from more than 0 fold to less than 5 fold)	A (A represents no increase or an increase ranging from more than 0 fold to less than 5 fold)
COC(=O)Nc1c(N)nc(-c2nn(Cc3ccccc3F)c3c2CCCC3)nc1N [Compound I-13]	A (A represents no increase or an increase ranging from more than 0 fold to less than 5 fold)	A (A represents no increase or an increase ranging from more than 0 fold to less than 5 fold)
CS(=O)(=O)N1CCc2c(c(-c3ncccn3)nn2Cc2ccccc2F)C1 [Compound I-51, 1-(2-fluorobenzyl)-5-(methylsulfonyl)-3-(pyrimidin-2-yl)-4,5,6,7-tetrahydro-1H-pyrazolo[4,3-c]pyridine]	A (A represents no increase or an increase ranging from more than 0 fold to less than 5 fold)	A (A represents no increase or an increase ranging from more than 0 fold to less than 5 fold)
CC1(C)CCCc2c(-c3ncccn3)nn(Cc3ccccc3F)c21 [Compound I-16]	A (A represents no increase or an increase ranging from more than 0 fold to less than 5 fold)	B (B represents an increase ranging from 5 fold to less than 10 fold)
CC1(C)CCc2c(c(-c3ncccn3)nn2Cc2ccccc2F)C1 [Compound I-17]	B (B represents an increase ranging from 5 fold to less than 10 fold)	A (A represents no increase or an increase ranging from more than 0 fold to less than 5 fold)
N#Cc1cccc(Cn2nc(-c3ncccn3)c3c2CCCC3)c1 [Compound I-9]	A (A represents no increase or an increase ranging from more than 0 fold to less than 5 fold)	B (B represents an increase ranging from 5 fold to less than 10 fold)
CC1(C)C=Cc2c(c(-c3ncccn3)nn2Cc2ccccc2F)C1 [Compound I-29]	A (A represents no increase or an increase ranging from more than 0 fold to less than 5 fold)	B (B represents an increase ranging from 5 fold to less than 10 fold)
Nc1nc(-c2nn(Cc3ccccc3F)c3c2CCCC3)ncc1-c1ccncc1 [Compound I-27]	A (A represents no increase or an increase ranging from more than 0 fold to less than 5 fold)	A (A represents no increase or an increase ranging from more than 0 fold to less than 5 fold)
Fc1cccc(Cn2nc(-c3ncccn3)c3c2CCCC3)c1 [Compound I-7]	C (C represents an increase ranging from 10 fold to less than 20 fold)	D (D represents an increase ranging from 20 fold to less than 50 fold)
Fc1ccccc1Cn1nc(-c2ncccn2)c2c1CCC(F)(F)C2 [Compound I-30]	A (A represents no increase or an increase ranging from more than 0 fold to less than 5 fold)	A (A represents no increase or an increase ranging from more than 0 fold to less than 5 fold)
Fc1ccccc1Cn1nc(-c2cncnc2)c2c1CCCC2 [Compound I-47, 1-(2-fluorobenzyl)-3-(pyrimidin-5-yl)-4,5,6,7-tetrahydro-1H-indazole]	A (A represents no increase or an increase ranging from more than 0 fold to less than 5 fold)	A (A represents no increase or an increase ranging from more than 0 fold to less than 5 fold)
COc1cccc(Cn2nc(-c3ncccn3)c3c2CCCC3)c1 [Compound I-5]	B (B represents an increase ranging from 5 fold to less than 10 fold)	C (C represents an increase ranging from 10 fold to less than 20 fold)
Nc1nc(-c2nn(Cc3ccccc3F)c3c2CCCC3)nc(N)c1NC(=O)OCCCl [Compound I-25]	A (A represents no increase or an increase ranging from more than 0 fold to less than 5 fold)	B (B represents an increase ranging from 5 fold to less than 10 fold)
Fc1ccccc1Cn1nc(-c2ncccn2)c2c1CCSC2 [Compound I-15]	C (C represents an increase ranging from 10 fold to less than 20 fold)	C (C represents an increase ranging from 10 fold to less than 20 fold)
c1cnc(-c2nn(Cc3cccc4ccsc34)c3c2CCCC3)nc1 [Compound I-10]	B (B represents an increase ranging from 5 fold to less than 10 fold)	B (B represents an increase ranging from 5 fold to less than 10 fold)
